# Laboratory results from US9789096B2, “Methods and compositions for selective and targeted cancer therapy” (Board of Regents of the University of Texas System, priority 2013, dated 2017).
# Like-named read-outs stand apart in the source and are kept apart here.
# Tests used:
# [1] = tested on: 12 lung adenocarcinoma cell lines; assay: Proliferation of the panel of 12 lung adenocarcinoma cell lines; format: cell-based, human
# Experimental: (§1) FIG. 6A. […] Cell viability is plotted vs. compound concentration. Compound was added to cells plated at 15% confluence in 96-well plates in RPMI-1640 media supplemented with 5% Fetal Bovine Serum and 2 mM L-Glutamine. After 4 days of incubation, ATP levels were measured using Cell Titer Glo (Promega). Data are presented as the average of 2 replicates ±SEM.
# To discover selective agents, twelve cell lines of diverse genotype were selected for analysis. 108 lung cancer cell lines were initially clustered into six groups based on mRNA expression of genes that underwent frequent copy number variation. Two cell lines were chosen from each group for high throughput chemical screening. All 12 of the chosen cell lines were derived from lung adenocarcinomas, eliminating both lineage and histology as confounders. None of the cell lines chosen for screening harbored EGFR mutations or ALK rearrangements, so that the final set represented a collection of diverse lung adenocarcinoma genotypes for which there are no targeted therapy.
# The proliferative impact of each compound in the library was assayed by analyzing total ATP four days after administration of 2.5 μM in a single well. This first pass yielded 15,843 toxins defined as a compound where ATP levels were […] three standard deviations below the mean for at least one cell line. For each of these putative toxins, the average effect on proliferation was retested on each cancer cell line and a non-cancerous immortalized HBEC line (control), yielding a confirmation dataset.
# (§2) In addition, N-acyl benzothiazoles was also discovered, such as 4-amino-N-(6-methoxybenzo[d]thiazol-2-yl)benzamide (ATB). We compared the proliferation of 12 lung adenocarcinoma cell lines and three HBEC lines after the addition of ATB.
# (§3) We subsequently synthesized various derivatives that are both selective and potent (Tables 1 and 2). One leading candidate is a benzothiazole, SW202857, that inhibits proliferation in three of 12 adenocarcinoma cell lines at concentrations less than 10 nM.
# [2] = target: T1, GSK3beta (Homo sapiens, UniProt P49841); assay: Kinase inhibition assay (EMD Millipore), GSK3beta; format: biochemical; conditions: 100 nM
# T1 construct: purchased EMD Millipore
# Experimental: (§4) Specifically, kinase inhibition assays were performed at EMD Millipore at 1, 10 and 100 nM SW202857 and individually optimized concentrations of ATP. […] Listed kinases are the human enzyme unless indicated: mouse (m), rat (r), yeast (y).
# [3] = tested on: about 300 protein kinase enzymes; assay: Kinase inhibition assays (EMD Millipore); format: biochemical, human
# Experimental: as §4
# [4] = tested on: H1993; assay: Cell viability dose-response, H1993; format: cell-based; conditions: Homo sapiens, NCI-H1993
# How it was run: (§5)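 Cells were plated at 15% confluence in RPMI-1640 with 5% FBS and 2 mM L-glutamine, then exposed to compound for 4 days. Viability was read as cellular ATP by CellTiter-Glo luminescence. Values are means of 2 replicates ±SEM, and IC50 comes from the dose-response curve.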
# [5] = tested on: HCC44; assay: Cell viability dose-response, HCC44; format: cell-based, human; conditions: Homo sapiens
# How it was run: as §5
# [6] = tested on: H2009; assay: Cell viability dose-response, H2009; format: cell-based, human; conditions: Homo sapiens, NCI-H2009
# How it was run: as §5
# [7] = tested on: H2122; assay: Cell viability dose-response, H2122; format: cell-based, human
# How it was run: (§6)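 Cells plated at 15% confluence in RPMI-1640 with 5% FBS and 2 mM L-glutamine, treated with compound in a 12-point, 3-fold dilution series from 50 micromolar, in duplicate. ATP measured by Cell Titer Glo after 4 days; IC50 taken from the dose-response curve.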
# [8] = tested on: HBEC30KT; assay: Cell viability (ATP, Cell Titer Glo, 4 days), HBEC30KT; format: cell-based, human; conditions: Homo sapiens
# [9] = tested on: H1819; assay: Cell viability dose-response, H1819; format: cell-based, human
# How it was run: as §6
# [10] = Stability in mouse liver S9 fractions; format: in vitro ADME
# [11] = tested on: H460; assay: Cell viability dose-response, H460; format: cell-based; conditions: Homo sapiens, NCI-H460
# How it was run: as §5
# [12] = tested on: H2122 cells; assay: Metabolism by sensitive cells (HPLC/MS/MS); format: in vitro ADME, human
# Experimental: FIGS. 9A-9D. Selective toxins selectively cross-link to SCD1 in sensitive cells and are selectively metabolized in sensitive cells. FIG. 9A. 12 NSCLC cell lines were incubated with SW208108 and processed as described in FIG. 7. […] FIG. 9B. […] FIG. 9C. […] Demethylation is the anticipated mode of metabolism. FIG. 9D. A representative benzothiazole is demethylated by sensitive cell lines. […] Values in FIGS. 9C and 9D were obtained by tandem HPLC/MS/MS.
# In this context, 12 different NSCLC cell lines were treated with SW208108, lysed and clicked to a dye as previously described. […] To understand how SW208108 could selectively cross-link to SCD1 within some cell lines that expressed the enzyme but not other cell lines that expressed the same enzyme, we investigated the stability of a representative oxalamide in the presence of a sensitive and insensitive cell line. […] Similarly, a representative benzothiazole was metabolized by H2122 cells through, at least in part, the loss of the O-methyl group (FIG. 9D).
# [13] = tested on: 3 human bronchial epithelial (HBEC) cell lines; assay: Vitality of human bronchial epithelial (HBEC) cell lines; format: cell-based; conditions: at 10 μM
# Experimental: as §2, §3
# [14] = tested on: HCC95; assay: Cell viability dose-response, HCC95; format: cell-based; conditions: Homo sapiens
# How it was run: as §5
# [15] = tested on: H1155; assay: Cell viability dose-response, H1155; format: cell-based; conditions: Homo sapiens, NCI-H1155
# How it was run: as §5
# [16] = tested on: H1395; assay: Cell viability dose-response, H1395; format: cell-based; conditions: Homo sapiens, NCI-H1395
# How it was run: as §5
# [17] = tested on: HCC4017; assay: Cell viability dose-response, HCC4017; format: cell-based, human; conditions: Homo sapiens
# How it was run: as §5
# [18] = tested on: H2073; assay: Cell viability dose-response, H2073; format: cell-based, human; conditions: Homo sapiens
# How it was run: as §5
# [19] = tested on: HopS62; assay: Cell viability dose-response, HopS62; format: cell-based; conditions: Homo sapiens; Table 4; read-out: IC50 (uM) vs indicated non-small cell lung cancer cell line HopS62
# Experimental: as §1
# Selectivity may be measured by the half maximal inhibitory concentration (IC50), which, as used herein, is a measure of the effectiveness of a compound in killing cells. This quantitative measure indicates how much of a particular compound is needed to kill a particular cell population by half (e.g., as indicated by the amount of ATP). […] The IC50 can be determined by constructing a dose-response curve. The lower the IC50, the higher the potency, and the greater the difference between IC50 values for different cell lines (e.g., sensitive lines vs. insensitive lines, and sensitive lines vs. normal lines) the greater the selectivity.
# With this information, we synthesized and tested a series of small molecules derived in conception from the oxalamide and chromone scaffold including N-acyl ureas, as shown in Tables 6-8. Each compound was tested in a 12-point dose-response study starting at 50 micromolar and decreasing in 3-fold increments to sub-nanomolar concentrations, in duplicate. […]
# [20] = tested on: H2122 cells; assay: Toxicity to H2122 cells with or without CYP4 inhibitor HET0016; format: cell-based, human
# [21] = tested on: HCC366; assay: Cell viability dose-response, HCC366; format: cell-based; conditions: Homo sapiens, 12-point dose-response starting at 50 micromolar, 3-fold increments, in duplicate, read-out: toxicity data, HCC366
# How it was run: as §5
# [22] = HCC44, Tables 3 and 4, read-out: IC50 (uM) vs indicated non-small cell lung cancer cell line HCC44
# [23] = Homo sapiens, NCI-H2122, Table 9, competitor, read-out: IC50 to H2122 cells
# [24] = Homo sapiens, NCI-H2122, Tables 3 and 4, read-out: IC50 (uM) vs indicated non-small cell lung cancer cell line H2122
# T1 sequence (P49841 whole entry): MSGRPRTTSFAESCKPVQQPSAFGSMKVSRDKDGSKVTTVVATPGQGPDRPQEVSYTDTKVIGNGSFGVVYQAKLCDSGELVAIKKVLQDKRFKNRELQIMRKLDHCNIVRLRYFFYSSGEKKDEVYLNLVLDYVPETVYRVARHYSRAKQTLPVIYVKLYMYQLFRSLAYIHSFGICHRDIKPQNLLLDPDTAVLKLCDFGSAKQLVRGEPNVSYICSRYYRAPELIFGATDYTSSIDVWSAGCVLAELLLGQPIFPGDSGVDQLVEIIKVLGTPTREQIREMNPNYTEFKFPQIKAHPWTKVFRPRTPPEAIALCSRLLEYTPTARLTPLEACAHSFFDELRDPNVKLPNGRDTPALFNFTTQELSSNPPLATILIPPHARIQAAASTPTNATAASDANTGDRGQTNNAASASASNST
structure (smiles),measurement,setting,value
"COc1ccc2nc(NC(=O)c3ccc(C(=O)c4ccccc4)cc3)sc2c1 [SW202857-1, 4-benzoyl-N-(6-methoxybenzo[d]thiazol-2-yl)benzamide]",toxic concentration against four sensitive cell lines,[1]; four sensitive cell lines,less than 50 nM
same,concentration that inhibits proliferation in three of 12 adenocarcinoma cell lines,[1]; three sensitive lines,less than 10 nM
same,toxic effect on the other 9 adenocarcinoma cell lines,[1]; up to 10 μM,no toxic effect
same,inhibition at 0.1 µM,[2],21%
same,inhibition of about 300 protein kinase enzymes in vitro,[3]; 0.10 μM,failed to inhibit
same,"inhibition, all other kinases",[3]; highest concentration (100 nM),≤ 15%
same,IC50,"[4]; Tables 3 and 4, read-out: IC50 (uM) vs indicated non-small cell lung cancer cell line H1993",21.3 µM
same,IC50,[5]; [22],0.0236 µM
same,IC50,"[6]; Tables 3 and 4, read-out: IC50 (uM) vs indicated non-small cell lung cancer cell line H2009",3.16 µM
same,IC50,[7]; [23],0.00923 µM
same,IC50,[7]; [24],0.00839 µM
same,IC50,"[8]; Tables 3 and 4, read-out: HBEC30KT IC50",22.8 µM
same,IC50,"[9]; Homo sapiens, NCI-H1819, Tables 3 and 4, read-out: IC50 (uM) vs indicated non-small cell lung cancer cell line H1819",42.7 µM
same,stability in the presence of mouse liver S9 fractions,[10],chemically stable
same,IC50,"[11]; Tables 3 and 4, read-out: IC50 (uM) vs indicated non-small cell lung cancer cell line H460",0.046 µM
same,metabolism by sensitive H2122 cells,[12],demethylated
same,vitality of 3 human bronchial epithelial (HBEC) cell lines,[13],nor does it affect the vitality
same,IC50,"[14]; Tables 3 and 4, read-out: IC50 (uM) vs indicated non-small cell lung cancer cell line HCC95",10.8 µM
same,IC50,"[15]; Tables 3 and 4, read-out: IC50 (uM) vs indicated non-small cell lung cancer cell line H1155",22.3 µM
same,IC50,"[16]; Tables 3 and 4, read-out: IC50 (uM) vs indicated non-small cell lung cancer cell line H1395",31.8 µM
same,IC50,"[17]; HCC4017, Tables 3 and 4, read-out: IC50 (uM) vs indicated non-small cell lung cancer cell line HCC4017",32.6 µM
same,IC50,"[18]; NCI-H2073, Tables 3 and 4, read-out: IC50 (uM) vs indicated non-small cell lung cancer cell line H2073",0.0185 µM
O=C(Nc1nc2ccccc2o1)c1ccc(C(=O)c2ccccc2)cc1 [SW208665-1],IC50,[19],1.93 µM
same,IC50,[5]; [22],2.14 µM
same,IC50,[7]; [23],0.8 µM
same,IC50,[7]; [24],42.7 µM
"CNC(=O)c1cccc(NC(=O)N2CCC(Oc3ccccc3Cl)CC2)c1 [compound 28c, reference compound]",toxicity to the same 4 non-small cell lung cancer cell lines,[1]; FIG. 8E,toxic
O=C(NCCc1ccc(O)cc1)NC(=O)c1ccc(Oc2ccccc2)cc1 [SW208523],IC50,[7]; [23],0.0197 µM
same,toxicity to H2122 cells in the presence of CYP450 inhibitor HET0016,[20],toxic to H2122 cells in the presence or absence of the CYP450 inhibitor
O=C(Nc1nc2c(s1)CCC2)c1ccc(C(=O)c2ccccc2)cc1 [SW208666-1],IC50,[19],0.09 µM
same,IC50,[5]; [22],3.52 µM
same,IC50,[7]; [24],0.26 µM
COc1ccc(CCNC(=O)NC(=O)c2ccc(Oc3ccccc3)cc2)cc1 [SW208456],IC50,[7]; [23],0.0134 µM
same,toxicity to H2122 cells in the presence of CYP450 inhibitor HET0016,[20],rescued
"COc1ccc2nc(NC(=O)c3ccc(N)cc3)sc2c1 [ATB, 4-amino-N-(6-methoxybenzo[d]thiazol-2-yl)benzamide]",IC50,"[1]; Homo sapiens, read-out: IC50 against 10 other cell lines, including the normal line",> 1 µM
same,IC50,"[7]; Homo sapiens, NCI-H2122, read-out: IC50 against the most sensitive cell line (H2122)",0.048 µM
COc1ccc(CCNC(=O)C(=O)Nc2cccc(Br)c2)cc1 [SW027952],IC50,"[4]; 12-point dose-response starting at 50 micromolar, 3-fold increments, in duplicate, read-out: toxicity data, H1993",50 µM
same,IC50,[21],50 µM
same,IC50,"[5]; HCC44, 12-point dose-response starting at 50 micromolar, 3-fold increments, in duplicate, read-out: toxicity data, HCC44",≥ 50 µM
same,IC50,"[6]; 12-point dose-response starting at 50 micromolar, 3-fold increments, in duplicate, read-out: toxicity data, H2009",11.3 µM
same,IC50,"[7]; 12-point dose-response starting at 50 micromolar, 3-fold increments, in duplicate, read-out: toxicity data, H2122",1.04 µM
same,IC50,"[8]; 12-point dose-response starting at 50 micromolar, 3-fold increments, in duplicate, read-out: toxicity data, HBEC30KT",19.8 µM
same,IC50,"[9]; 12-point dose-response starting at 50 micromolar, 3-fold increments, in duplicate, read-out: toxicity data, H1819",≥ 50 µM
same,IC50,"[11]; 12-point dose-response starting at 50 micromolar, 3-fold increments, in duplicate, read-out: toxicity data, H460",50 µM
same,IC50,"[14]; 12-point dose-response starting at 50 micromolar, 3-fold increments, in duplicate, read-out: toxicity data, HCC95",0.24 µM
same,IC50,"[15]; 12-point dose-response starting at 50 micromolar, 3-fold increments, in duplicate, read-out: toxicity data, H1155",50 µM
same,IC50,"[16]; 12-point dose-response starting at 50 micromolar, 3-fold increments, in duplicate, read-out: toxicity data, H1395",50 µM
same,IC50,"[17]; HCC4017, 12-point dose-response starting at 50 micromolar, 3-fold increments, in duplicate, read-out: toxicity data, HCC4017",≥ 50 µM
same,IC50,"[18]; NCI-H2073, 12-point dose-response starting at 50 micromolar, 3-fold increments, in duplicate, read-out: toxicity data, H2073",17.5 µM
